Some targets named below: A*6802 (Homo sapiens, UniProt P04439, A269V/D140Y/D185E/E176V/E277Q/E87N/F33Y/G231S/I121R/I166T/I218V/L180W/L300P/L318F/N151K/P208A/P217A/Q86R/R138H/R169H/S129P/T345S/V36M); A*0202 (Homo sapiens, UniProt P04439, D140Y/D185E/D98H/E176V/E277Q/G131W/G231S/I119L/I121R/I166T/I218V/L180W/L300P/L318F/N151K/N90K/P208A/P217A/Q67R/Q86G/Q94H/R138H/R169H/T345S); A*0203 (Homo sapiens, UniProt P04439, A173T/D140Y/D185E/D98H/E277Q/G131W/G231S/I119V/I121R/I166T/I218V/L180W/L300P/L318F/N151K/N90K/P208A/P217A/Q86G/Q94H/R138H/R169H/T345S); HLA-A*0201 (HLA-A2.1) (Homo sapiens, UniProt P04439, D140Y/D185E/D98H/E176V/E277Q/G131W/G231S/I119V/I121R/I166T/I218V/L300P/L318F/N151K/N90K/P208A/P217A/Q86G/Q94H/R138H/R169H/T345S); A*0206 (Homo sapiens, UniProt P04439, D140Y/D185E/D98H/E176V/E277Q/F33Y/G131W/G231S/I119V/I121R/I166T/I218V/L300P/L318F/N151K/N90K/P208A/P217A/Q86G/Q94H/R138H/R169H/T345S).

Assay in all cases: biochemical
Assay type in all cases: binding

No end group written: not given here.

With PLYSWRINGI [Peptide 9013.0236], the IC50 (in general, the concentration at which inhibition is half-maximal) on A*6802 was greater than 20 µM; against A*0202, 0.348 µM; against A*0203, 0.014 µM; at HLA-A*0201 (HLA-A2.1), greater than 20 µM; at A*0206, greater than 20 µM.

VLAEAMAAA [Peptide 1516.12]: the IC50 stood at 0.639 µM on A*6802; 0.0019 µM against A*0202; 0.0032 µM at A*0203; 0.017 µM against HLA-A*0201 (HLA-A2.1); 0.016 µM against A*0206.

Regarding MAFEYALLA [Peptide 1578.09], the IC50 against A*6802 came to 0.029 µM; against A*0202, 0.052 µM; on A*0203 it was 0.074 µM; at HLA-A*0201 (HLA-A2.1) it was 0.226 µM; on A*0206, 0.1 µM.

On to YTNWSEIYI [Peptide 1578.56], for which the IC50 at A*6802 is 0.005 µM; against A*0202, 0.0036 µM; on A*0203, 0.047 µM; against HLA-A*0201 (HLA-A2.1), 0.061 µM; on A*0206 it was 0.216 µM.

Take GMIDDVTPI [Peptide 1578.24]: the IC50 against A*6802 was greater than 20 µM; against A*0202 it was 0.0002 µM; against A*0203 it was 0.00063 µM; against HLA-A*0201 (HLA-A2.1), 0.025 µM; against A*0206, 0.024 µM.

For the compound QLSNGNRTL [Peptide 9013.0050], the IC50 was 8.65 µM on A*6802; 0.039 µM on A*0202; 0.043 µM on A*0203; 16.1 µM against HLA-A*0201 (HLA-A2.1); greater than 20 µM against A*0206.

Regarding VLKSDLVNEEA [Peptide 9013.0279], the IC50 against A*6802 is greater than 20 µM; against A*0202, 0.014 µM; at A*0203 it was 3.42 µM; on HLA-A*0201 (HLA-A2.1) it was greater than 20 µM; on A*0206 it was greater than 20 µM.

As for IQGAVISFV [Peptide 1578.13], the IC50 against A*6802 was 4.88 µM; on A*0202 it was 0.012 µM; on A*0203 it was 0.013 µM; against HLA-A*0201 (HLA-A2.1), 0.045 µM; at A*0206, 0.035 µM.

As to KTITVSAEV [Peptide 9013.0083], the IC50 is 0.015 µM against A*6802; 0.042 µM at A*0202; 0.0026 µM against A*0203; 0.971 µM on HLA-A*0201 (HLA-A2.1); 0.079 µM against A*0206.

Consider VLAEAMGQV [Peptide 1539.05], for which the IC50 on A*6802 is 0.168 µM; at A*0202 it was 0.0017 µM; against A*0203, 0.0032 µM; against HLA-A*0201 (HLA-A2.1), 0.055 µM; at A*0206, 0.075 µM.

As to LTFWNPPTTV [Peptide 9013.0122], the IC50 against A*6802 stood at 0.023 µM; against A*0202, 0.038 µM; at A*0203 it was 0.0019 µM; on HLA-A*0201 (HLA-A2.1) it was 0.21 µM; against A*0206 it was 0.339 µM.

For LLFWNPPTTA [Peptide 9013.0123], the IC50 on A*6802 stood at 2.14 µM; against A*0202, 0.0013 µM; against A*0203, 0.0016 µM; against HLA-A*0201 (HLA-A2.1) it was 0.025 µM; against A*0206 it was 1.17 µM.

With EVLLLVHNV [Peptide 9013.0021], the IC50 is 0.003 µM at A*6802; 6.24 µM at A*0202; 6.6 µM on A*0203; 3.03 µM at HLA-A*0201 (HLA-A2.1); 0.107 µM against A*0206.

As to LLLSNGNRTL [Peptide 9013.0227], the IC50 against A*6802 is greater than 20 µM; against A*0202 it was 0.158 µM; at A*0203 it was 0.412 µM; on HLA-A*0201 (HLA-A2.1), 1.55 µM; on A*0206, 3.99 µM.

For the compound RMLQHLLFI [Peptide 1545.04], the IC50 against A*6802 was greater than 20 µM; on A*0202, 0.01 µM; against A*0203 it was 0.004 µM; on HLA-A*0201 (HLA-A2.1), 0.016 µM; on A*0206, 0.014 µM.

VLAEAMSHT [Peptide 1539.06]: the IC50 against A*6802 was greater than 20 µM; on A*0202, 0.016 µM; against A*0203, 0.0075 µM; against HLA-A*0201 (HLA-A2.1) it was 0.243 µM; on A*0206 it was 0.975 µM.

As to RILQQMLFI [Peptide 1525.22], the IC50 was greater than 20 µM against A*6802; 0.709 µM at A*0202; 0.241 µM against A*0203; 0.187 µM on HLA-A*0201 (HLA-A2.1); 0.108 µM on A*0206.

As for GLFRVYPEL [Peptide 9013.0039], the IC50 was greater than 20 µM at A*6802; 0.013 µM against A*0202; 0.229 µM against A*0203; 0.043 µM against HLA-A*0201 (HLA-A2.1); 1.42 µM at A*0206.

With VLAEAMSRV [Peptide 1516.10], the IC50 at A*6802 stood at 0.487 µM; against A*0202, 0.0026 µM; against A*0203 it was 0.0037 µM; on HLA-A*0201 (HLA-A2.1), 0.04 µM; against A*0206 it was 0.075 µM.

On to TLNNSGSYT [Peptide 9013.0065], for which the IC50 against A*6802 is greater than 20 µM; at A*0202 it was 0.237 µM; against A*0203, 0.233 µM; on HLA-A*0201 (HLA-A2.1) it was greater than 20 µM; at A*0206 it was greater than 20 µM.

Turning to ALYWYRTGM [Peptide 86.0189], the IC50 at A*6802 was greater than 20 µM; against A*0202 it was 0.013 µM; at A*0203, 0.057 µM; against HLA-A*0201 (HLA-A2.1), 1.6 µM; against A*0206 it was 15.6 µM.

Consider IIYPNASLLV [Peptide 9013.0144], for which the concentration for half-maximal inhibition (IC50) was found to be 0.83 µM against A*6802; 0.0099 µM against A*0202; 0.0047 µM on A*0203; 0.466 µM against HLA-A*0201 (HLA-A2.1); 0.07 µM against A*0206.

For `CC(C)C[C@H](NC(=O)[C@@H](N)CCCNC(=N)N)C(=O)N1CCC[C@H]1C(=O)N[C@@H](CCC(=O)O)C(=O)N[C@@H](C)C(=O)N[C@@H](C)C(=O)N1CCC[C@H]1C(=O)N1CCC[C@H]1C(=O)N[C@H](C(=O)N[C@H](C(=O)O)C(C)C)C(C)C` [Peptide 1323.17], the IC50 is greater than 20 µM against A*6802; 0.032 µM against A*0202; 0.018 µM at A*0203; 0.152 µM against HLA-A*0201 (HLA-A2.1); 0.24 µM on A*0206.

Regarding GLNRTTVTV [Peptide 9013.0066], the IC50 is greater than 20 µM against A*6802; 0.01 µM against A*0202; 0.0038 µM on A*0203; 0.109 µM against HLA-A*0201 (HLA-A2.1); 4.73 µM on A*0206.

Consider QLSTQELFI [Peptide 9013.0057], for which the IC50 came to 8.17 µM at A*6802; 0.0045 µM on A*0202; 0.027 µM on A*0203; 0.065 µM against HLA-A*0201 (HLA-A2.1); 7.47 µM against A*0206.

Consider LQGSVICFV [Peptide 1578.06], for which the concentration for half-maximal inhibition (IC50) on A*6802 came to 3.56 µM; at A*0202, 0.033 µM; against A*0203, 0.021 µM; against HLA-A*0201 (HLA-A2.1) it was 0.023 µM; against A*0206, 0.052 µM.

On to ALYWFRTAM [Peptide 86.0195], for which the IC50 is greater than 20 µM on A*6802; 0.017 µM at A*0202; 0.214 µM on A*0203; 1.48 µM against HLA-A*0201 (HLA-A2.1); 13.9 µM at A*0206.

On to RLQLSNGNRTV [Peptide 9013.0328], for which the IC50 at A*6802 was 4.84 µM; against A*0202, 0.128 µM; against A*0203, 0.057 µM; at HLA-A*0201 (HLA-A2.1), 5.9 µM; against A*0206 it was greater than 20 µM.

For RLLQQLLFI [Peptide 1525.10], the IC50 was greater than 20 µM against A*6802; 0.07 µM on A*0202; 0.046 µM against A*0203; 0.027 µM on HLA-A*0201 (HLA-A2.1); 0.019 µM against A*0206.

ALYWYKTGI [Peptide 86.0176]: the IC50 at A*6802 came to 3.29 µM; at A*0202, 0.021 µM; at A*0203, 0.053 µM; on HLA-A*0201 (HLA-A2.1), 0.665 µM; against A*0206 it was 4.12 µM.

As to QLHTQVLFI [Peptide 9013.0103], the IC50 on A*6802 is greater than 20 µM; against A*0202, 0.022 µM; on A*0203, 0.039 µM; against A*0206 it was 5.52 µM.
